Experimental data from patent publication US20240309014A1, “MACROCYCLIC COMPOUNDS AND USES THEREOF” (President and Fellows of Harvard College, priority 2017, published 2024).

Experiments:
[1] = test system: human breast cancer cell line MDA-MB231; experiment: MDA-MB231 growth inhibition assay; assay type: cell-based; conditions: 3 days incubation, CellTiter-Glo
Procedure: (§1) In this assay, the growth inhibitory activity of test compounds in a human breast cancer cell line MDA-MB231 was measured. MDA-MB231 cells were maintained in Dulbecco's Modified Eagle's medium (Wako Pure Chemical Industries, Ltd., 044-29765) medium containing 10% fetal bovine serum (FBS: Nichirei, 12D168), and penicillin and streptomycin in a 5% CO2 incubator (37° C.). To each well of a 96 well plate (Becton, Dickinson and Company, 353219), 75 μL of MDA-MB231 cell suspension adjusted to a concentration of 4×10^4 cells/mL with the culture medium was added, and the cells were incubated overnight in a 5% CO2 incubator (37° C.). On the next day, 25 μL of Compound (1) or Halichondrin B in three-fold dilution series suspended in the culture medium was added to each well, and the resultant was incubated for 3 days in a 5% CO2 incubator (37° C.). Then, cell viability was determined by CellTiter-Glo® Luminescent Cell Viability Assay (Promega) with EnVision 2103 Multilabel Reader (Perkin-Elmer, Wellesley, MA). Value of the wells containing cells without adding the test compounds was defined as 100% and the value of the wells containing no cells was defined as 0%. The concentration of the test compound necessary for inhibiting the cell growth by 50% (i.e., an IC50 value) was calculated, and shown in Table 2.

[2] = test system: human squamous cell carcinoma of the head and neck (SCCHN) cell line FaDu; experiment: FaDu growth inhibition assay; assay type: cell-based; conditions: 3 days incubation, CellTiter-Glo
Procedure: as §1, with “squamous cell carcinoma of the head and neck (SCCHN)” for “breast cancer”, “FaDu” for “MDA-MB231”, “an RPMI-1640” for “Dulbecco's Modified Eagle's medium”, “187-02021)” for “044-29765)”, “1.” for “2.”

[3] = test system: CD31-positive vessel in FaDu tumor; experiment: Effect on CD31-positive vessel in the FaDu subcutaneous model (Test Example 9); assay type: in vivo, nude mice; conditions: five days after administration
Procedure: A human squamous cell carcinoma of the head and neck (SCCHN) cell line FaDu, which had been cultured in an RPMI-1640 medium containing 10% FBS, and penicillin and streptomycin, was adjusted to a concentration of 5×10^7 cells/mL with PBS to prepare a cell suspension. The cell suspension was inoculated in a volume of 100 μL into a subcutaneous part of a right flank of nude mice, 7 weeks of ages (CAnN.Cg-Foxnlnu/CrlCrlj, female, Charles River Laboratories Japan, Inc.). Ten days after cell inoculation, a test compound in saline with 100 μM of hydroxypropyl-β-cyclodextrin was intravenously administered at doses from ½ MTD to MTD. The experiment was conducted on groups each consisting of 3 mice. Five days after administration, tumor samples were collected and fixed with IHC Zinc Fixative (BD Pharmingen) at 4° C. for 24 hr. Paraffin-embedded tissues were sectioned ([…]), mounted on positively charged slides, and air-dried. Immunohistochemical staining of CD31 was conducted using Ventana autostainer model Discover XT (Roche Diagnostics) according to the manufacture's protocol. Sections were deparaffinized, conditioned and the antigens were retrieved with CC1 (Ventana Medical Systems). Slides were blocked with Blocker A and Blocker B (Endogenous biotin blocking kit, Roche Diagnostics). Rat anti-mouse IgG CD31 antibody (Dianova GmbH) was applied at 2 μg/mL. Sections were incubated with the antibody for 6 hr, followed by 32 minutes incubation with biotinylated anti-rat IgG antibody (Jackson ImmunoResearch Laboratories) at 2.2 μg/mL. The detection was performed with Streptavidin-HRP D for 16 min, followed by incubation with DAB D and DAB H2O2 D (DABMap kit, Ventana Medical Systems, Inc) for 8 min. Slides were counterstained with Hematoxylin II (Roche Diagnostics) for 16 min, followed by incubation with Bluing reagent for 4 min. Sections were dehydrated in graded ethanols, defatted in xylene replacement and covered with DPX (Merck KGaA).
Immunostained slides were scanned using Vectra 2 Automated Slide Imaging System (Perkin Elmer Inc.). The number of blood vessels in the whole tumor was quantified by counting the CD31-positive objects using in Form 2 software (PerkinElmer Inc.) Area of the tumor region was measured by assessing the hematoxylin-staining area using inform 2 software (PerkinElmer Inc.) The number of blood vessels was normalized by the area of the tumor region. An increase rate of the blood vessel number of the test compound-dosing group was calculated with the below formula, and shown in Table 9.

[4] = test system: human synovial sarcoma cell line HS-SY-II xenograft; experiment: HS-SY-II xenograft model as monotherapy (FIG. 22); assay type: in vivo, nude mice
Procedure: A human synovial sarcoma cell line HS-SY-II, which had been cultured in a DMEM containing 10% FBS, and penicillin-streptomycin, was adjusted to a concentration of 1×10^8 cells/mL with 50% Geltrex (Thermo Fisher Scientific) in Hanks' Balanced Salt Solution to prepare a cell suspension. The cell suspension was inoculated in a volume of 100 μL into a subcutaneous part of a right flank of nude mice, 5 weeks of ages (CAnN.Cg-Foxnlnu/CrlCrlj, female, Charles River Laboratories Japan Inc.). Thirty days after cell inoculation (Day 1), the shortest diameter and the longest diameter of a tumor in each mouse were measured by using an electronic digital caliper (Digimatic™ caliper, Mitutoyo Corporation), so as to calculate the volume of the tumor in accordance with the following calculation formulae: […]
On the basis of the volumes of tumors obtained on Day 1, the mice were grouped such that averages of the tumor volumes were substantially equal among the groups. The experiment was conducted on groups each consisting of six mice. Compound (1) was dissolved in DMSO and a solution was stored in the freezer before use. Immediately before the administration, the stock solution was diluted with saline. The test compound in saline was intravenously once-weekly administered at 90 μg/kg or 180 μg/kg for 2 weeks (on Day 1 and Day 8).

[5] = MTD i.v. (Halichondrin B 0.05 mg/kg, Compound (1) 0.20 mg/kg)
[6] = ½ MTD i.v. (Halichondrin B 0.025 mg/kg, Compound (1) 0.10 mg/kg)

C=C1C[C@@H]2CC[C@@]34C[C@H]5O[C@H]6[C@@H](O3)[C@H]3O[C@H](CC[C@@H]3O[C@H]6[C@H]5O4)CC(=O)O[C@@H]3[C@@H](C)[C@@H]4O[C@@H]5C[C@]6(C[C@@H]7O[C@]8(C[C@H](C)[C@@H]9O[C@H]([C@@H](O)C[C@@H](O)CO)C[C@@H]9O8)C[C@H](C)[C@@H]7O6)O[C@@H]5C[C@@H]4O[C@H]3C[C@H]3O[C@@H](CC[C@@H]1O2)C[C@@H](C)C3=C [Halichondrin B, reference compound]
IC50 [1]: 1 nM | IC50 [2]: 0.124 nM | Increase rate of blood vessel number (%) [3, 5]: 39% | Increase rate of blood vessel number (%) [3, 6]: 31%

C=C1C[C@@H]2CC[C@@]34C[C@H]5O[C@H]6[C@@H](O3)[C@H]3O[C@H](CC[C@@H]3O[C@H]6C5O4)CC(=O)O[C@@H]3[C@@H](C)[C@@H]4O[C@@H]5C[C@]6(C[C@@H]7O[C@]8(C[C@H](C)[C@@H]9O[C@H](CN)[C@H](O)C[C@@H]9O8)C[C@H](C)[C@@H]7O6)O[C@@H]5C[C@@H]4O[C@H]3C[C@H]3O[C@@H](CC[C@@H]1O2)C[C@@H](C)C3=C (stereo in doubt) [Compound (1)]
IC50 ([1]; Homo sapiens, MDA-MB-231, 72 h): 0.109 nM | IC50 ([2]; Homo sapiens, FaDu, 72 h): 0.0714 nM | Increase rate of blood vessel number (%) [3, 5]: 154% | Increase rate of blood vessel number (%) [3, 6]: 69% | antitumor effect ([4]; 90 μg/kg i.v. Day 1 and Day 8): tumor growth delay | antitumor effect ([4]; 180 μg/kg i.v. Day 1 and Day 8): tumor regression
